The assay addresses T1, full length active recombinant SYK enzyme (Homo sapiens, UniProt P43405).
T1 construct: full length active recombinant SYK enzyme (Millipore, Calif.); purchased Millipore
Briefly: Inhibition of Syk tyrosine phosphorylation activity (LANCE TR-FRET kinase assay). The class given is biochemical. Conditions: 1 nM active SYK enzyme, 550 nM SYK-substrate, 100 μM ATP, 1 hour at room temperature. How it is done:
The in vitro and in vivo human JAK/Syk activities of the inventive compounds can be determined by various procedures known in the art, such as a test for their ability to inhibit the activity of human plasma JAK/Syk. […] The IC50 value is the concentration of the compound required to provide 50% inhibition of human JAK/Syk proteolytic activity.
An in vitro assay for detecting and measuring inhibition activity against Syk is as follows.
SYK tyrosine phosphorylation activity is measured using the LANCE™ Technology developed by Perkin Elmer Life and Analytical Sciences (Boston, Mass.). LANCE™ refers to homogeneous time resolved fluorometry applications using techniques such as time-resolved fluorescence resonance energy transfer assay (TR-FRET) (see generally for procedures in Perkin Elmer Application Note—How to Optimize a Tyrosine Kinase Assay Using Time Resolved Fluorescence-Based LANCE Detection, wwww.perkinelmer.com/lifesciences). The assay principle involves detection of a phosphorylated substrate using energy transfer from a phosphospecific europium-labeled antibody to streptavidin-allophycocyanin as an acceptor.
Molecules are reconstituted in 30% DMSO and serially diluted 1:3 with the final dilution containing DMSO in the absence of the candidate molecule. The final DMSO concentration in the assay is 3%. Kinase assays are performed as a two part reaction. The first reaction is a kinase reaction which comprises a candidate molecule, full length active recombinant SYK enzyme (Millipore, Calif.), and biotin-DEEDYESP-OH, a biotin-labeled SYK-specific substrate. The second reaction involves termination of the kinase reaction and the simultaneous addition of the detection reagents—europium-labeled anti-phosphotyrosine reagent (Eu-W1024-PY100, Perkin Elmer, Boston, Mass.) and Streptavidin-Allophycocyanin detection reagent (SA-APC, Prozyme, CA). The kinase reaction is performed in a black U-bottom 96-well microtitre plate. The final reaction volume is 50 μL and contains a final concentration of 1 nM active SYK enzyme, 550 nM SYK-substrate, and 100 μM ATP diluted in a buffer containing 50 mM Tris pH 7.5, 5 mM MgCl2, and 1 mM DTT. The reaction is allowed to proceed for 1 hour at room temperature. The quench buffer contains 100 mM Tris pH 7.5, 300 mM NaCl2, 20 mM EDTA, 0.02% Brij35, and 0.5% BSA. […] Detection of the phosphorylated substrate in the absence and presence of inhibitors is measured in the TR-FRET instrument, Analyst HT (Molecular Probes, Sunnyvale, Calif.) and the condition for measurements are set using CriterionHost Release 2.0 (Molecular Probes, Sunnyvale, Calif.). […] Inhibition of SYK-tyrosine kinase activity is calculated as the maximum response observed in the presence of inhibitor, compared to that in the absence of inhibitor. […]

SMILES strings stand for the structures. pIC50: −log10 of the molar value. A value given as a limit tells only on which side of the number the result lay.

This is an account of results in patent US9533986B2, “Bicyclic dihydropyridone kinase inhibitors” (PORTOLA PHARMACEUTICALS, INC., priority 2012, dated 2017).

On to `Cc1cccc(Nc2nc(N[C@@H]3CCCC[C@@H]3N)nc3c2C(=O)NCC3)c1` [Example 1, 2-(((1R,2S)-2-aminocyclohexyl)amino)-4-(m-tolylamino)-7,8-dihydropyrido[4,3-d]pyrimidin-5(6H)-one], for which the pIC50 was at least 7.00.

Consider `N[C@H]1CCCC[C@H]1Nc1nc2c(c(Nc3cccc(-c4ncccn4)c3)n1)C(=O)NCC2` [Example 4, 2-(((1R,2S)-2-aminocyclohexyl)amino)-4-((3-(pyrimidin-2-yl)phenyl)amino)-7,8-dihydropyrido[4,3-d]pyrimidin-5(6H)-one], for which the pIC50 was at least 6.60.

For `N[C@H]1CCCC[C@H]1Nc1nc2c(c(Nc3cccc(-n4nccn4)c3)n1)C(=O)NCC2` [Example 6, 4-((3-(2H-1,2,3-triazol-2-yl)phenyl)amino)-2-(((1R,2S)-2-aminocyclohexyl)amino)-7,8-dihydropyrido[4,3-d]pyrimidin-5(6H)-one], the pIC50 was at least 7.00.

Regarding `COc1ccc(Nc2nc(N[C@@H]3CCCC[C@@H]3N)nc3c2C(=O)NCC3)cc1C(F)(F)F` [Example 7, 2-(((1R,2S)-2-aminocyclohexyl)amino)-4-((4-methoxy-3-(trifluoromethyl)phenyl)amino)-7,8-dihydropyrido[4,3-d]pyrimidin-5(6H)-one], the pIC50 is below 6.60.
